Data as given in the kinase profiling compilation of Christmann-Franck et al. (2016).

How the values were obtained:
Assay in all cases: KINOMEscan competition binding
Details in all cases: compound 10.0 µM
CDK3 (human) = CDK3 (human) (UniProt Q00526)
PKN1 (human) = PKN1 (human) (UniProt Q16512)
MAP4K4 (human) = MAP4K4 (human) (UniProt O95819)
CDK17 (human) = CDK17 (human) (UniProt Q00537)
NEK5 (human) = NEK5 (human) (UniProt Q6P3R8)
MYO3B (human) = MYO3B (human) (UniProt Q8WXR4)
PRKCE (human) = PRKCE (human) (UniProt Q02156)
FGFR2 (human) = FGFR2 (human) (UniProt P21802)
MAPK10 (human) = MAPK10 (human) (UniProt P53779)
PRKG2 (human) = PRKG2 (human) (UniProt Q13237)
PRKG2 (human), sequence (Q13237 whole entry, looked up): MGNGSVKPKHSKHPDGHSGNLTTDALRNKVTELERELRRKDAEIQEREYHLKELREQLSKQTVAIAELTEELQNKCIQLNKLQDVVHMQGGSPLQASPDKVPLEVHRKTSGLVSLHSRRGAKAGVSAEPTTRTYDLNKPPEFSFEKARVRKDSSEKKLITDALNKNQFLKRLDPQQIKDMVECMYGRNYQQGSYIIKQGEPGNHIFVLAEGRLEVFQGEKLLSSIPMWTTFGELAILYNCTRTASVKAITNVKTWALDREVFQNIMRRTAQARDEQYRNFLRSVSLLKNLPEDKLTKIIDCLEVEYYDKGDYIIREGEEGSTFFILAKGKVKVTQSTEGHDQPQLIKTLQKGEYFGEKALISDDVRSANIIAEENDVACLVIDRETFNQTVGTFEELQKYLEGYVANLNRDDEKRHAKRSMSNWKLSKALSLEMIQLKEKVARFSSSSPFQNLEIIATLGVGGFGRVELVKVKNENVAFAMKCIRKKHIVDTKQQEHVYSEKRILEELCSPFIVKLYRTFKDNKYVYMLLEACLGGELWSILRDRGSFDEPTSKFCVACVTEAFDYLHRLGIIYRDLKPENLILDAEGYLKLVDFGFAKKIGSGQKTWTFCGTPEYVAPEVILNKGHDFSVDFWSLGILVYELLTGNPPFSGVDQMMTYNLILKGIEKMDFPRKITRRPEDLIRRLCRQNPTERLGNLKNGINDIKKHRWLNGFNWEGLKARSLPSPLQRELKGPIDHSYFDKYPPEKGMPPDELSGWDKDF

RPS6KA4 KD2 (human) = RPS6KA4 KD2 (human) (UniProt O75676)
STK38L (human) = STK38L (human) (UniProt Q9Y2H1)
CAMKK1 (human) = CAMKK1 (human) (UniProt Q8N5S9)
CAMKK1 (human), sequence (Q8N5S9 whole entry, looked up): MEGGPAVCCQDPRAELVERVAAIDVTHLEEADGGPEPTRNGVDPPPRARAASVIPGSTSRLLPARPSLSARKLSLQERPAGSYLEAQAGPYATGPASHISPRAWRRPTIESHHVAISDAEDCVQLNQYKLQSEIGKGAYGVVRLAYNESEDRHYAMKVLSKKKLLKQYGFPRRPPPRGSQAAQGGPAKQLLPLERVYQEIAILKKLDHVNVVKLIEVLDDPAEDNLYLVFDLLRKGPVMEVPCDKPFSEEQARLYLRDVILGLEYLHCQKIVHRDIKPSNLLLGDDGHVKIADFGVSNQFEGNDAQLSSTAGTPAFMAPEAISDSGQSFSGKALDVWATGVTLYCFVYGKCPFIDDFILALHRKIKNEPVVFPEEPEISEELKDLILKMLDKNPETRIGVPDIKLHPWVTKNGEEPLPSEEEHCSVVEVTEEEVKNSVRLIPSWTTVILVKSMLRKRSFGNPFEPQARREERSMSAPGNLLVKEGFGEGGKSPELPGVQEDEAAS

DCLK3 (human) = DCLK3 (human) (UniProt Q9C098)
CDK11B (human) = CDK11B (human) (UniProt P21127)
[1] = tested on: ABL1 (human), P00519 [M351T]
RPS6KA6 KD1 (human) = RPS6KA6 KD1 (human) (UniProt Q9UK32)
RPS6KA6 KD1 (human), sequence (Q9UK32 whole entry, looked up): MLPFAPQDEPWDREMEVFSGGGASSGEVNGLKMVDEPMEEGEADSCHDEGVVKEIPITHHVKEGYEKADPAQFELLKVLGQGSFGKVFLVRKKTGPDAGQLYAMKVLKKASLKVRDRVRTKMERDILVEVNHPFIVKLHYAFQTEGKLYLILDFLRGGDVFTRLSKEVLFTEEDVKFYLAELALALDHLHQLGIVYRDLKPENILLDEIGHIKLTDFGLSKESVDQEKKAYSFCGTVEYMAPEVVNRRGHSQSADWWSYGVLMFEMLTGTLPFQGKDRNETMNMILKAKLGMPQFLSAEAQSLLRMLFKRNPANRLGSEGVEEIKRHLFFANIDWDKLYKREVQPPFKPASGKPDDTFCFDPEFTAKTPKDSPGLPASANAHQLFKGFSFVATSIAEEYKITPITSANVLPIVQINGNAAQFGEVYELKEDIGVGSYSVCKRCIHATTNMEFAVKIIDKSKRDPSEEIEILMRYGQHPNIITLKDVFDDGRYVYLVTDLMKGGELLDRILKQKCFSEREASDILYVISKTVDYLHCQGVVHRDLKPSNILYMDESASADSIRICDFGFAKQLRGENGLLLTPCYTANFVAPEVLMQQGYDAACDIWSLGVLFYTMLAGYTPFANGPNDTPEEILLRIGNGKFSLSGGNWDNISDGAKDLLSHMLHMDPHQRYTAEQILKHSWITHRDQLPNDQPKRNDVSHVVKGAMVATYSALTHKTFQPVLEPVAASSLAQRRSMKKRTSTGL

NTRK3 (human) = NTRK3 (human) (UniProt Q16288)
PIP5K1A (human) = PIP5K1A (human) (UniProt Q99755)
EPHA8 (human) = EPHA8 (human) (UniProt P29322)
FGFR3 (human) = FGFR3 (human) (UniProt P22607)
CDK8 (human) = CDK8 (human) (UniProt P49336)
LIMK1 (human) = LIMK1 (human) (UniProt P53667)
STK16 (human) = STK16 (human) (UniProt O75716)
STK10 (human) = STK10 (human) (UniProt O94804)
FGR (human) = FGR (human) (UniProt P09769)
[2] = tested on: EIF2AK4 KD2 (human), Q9P2K8 [S808G]
MAP4K2 (human) = MAP4K2 (human) (UniProt Q12851)
EPHA1 (human) = EPHA1 (human) (UniProt P21709)
TNK1 (human) = TNK1 (human) (UniProt Q13470)
MLTK (human) = MLTK (human) (UniProt Q9NYL2)
STK4 (human) = STK4 (human) (UniProt Q13043)
GAK (human) = GAK (human) (UniProt O14976)
[3] = target: TYK2 JH1 catalytic (human) (UniProt P29597)
PTK2B (human) = PTK2B (human) (UniProt Q14289)
PRKAA2 (human) = PRKAA2 (human) (UniProt P54646)
PRKAA2 (human), sequence (P54646 whole entry, looked up): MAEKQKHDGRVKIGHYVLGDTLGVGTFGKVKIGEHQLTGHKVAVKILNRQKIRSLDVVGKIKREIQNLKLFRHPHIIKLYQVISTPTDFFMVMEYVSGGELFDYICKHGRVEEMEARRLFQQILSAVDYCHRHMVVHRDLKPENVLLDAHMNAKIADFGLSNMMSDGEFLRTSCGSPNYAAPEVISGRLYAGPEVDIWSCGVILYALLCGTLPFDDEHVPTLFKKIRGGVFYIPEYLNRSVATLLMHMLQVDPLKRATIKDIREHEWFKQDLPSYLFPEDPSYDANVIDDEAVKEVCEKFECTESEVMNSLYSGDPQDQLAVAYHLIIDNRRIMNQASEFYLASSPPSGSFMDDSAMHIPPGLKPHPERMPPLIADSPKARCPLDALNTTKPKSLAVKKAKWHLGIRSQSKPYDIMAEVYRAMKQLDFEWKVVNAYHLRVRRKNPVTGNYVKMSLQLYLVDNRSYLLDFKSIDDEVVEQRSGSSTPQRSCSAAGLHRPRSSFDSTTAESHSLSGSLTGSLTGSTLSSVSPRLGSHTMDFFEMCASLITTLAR

STK24 (human) = STK24 (human) (UniProt Q9Y6E0)
[4] = tested on: KIT (human), P10721 [D816V]
CDC42BPG (human) = CDC42BPG (human) (UniProt Q6DT37)
PKN2 (human) = PKN2 (human) (UniProt Q16513)

MAP4K4 (human), sequence (O95819 whole entry, looked up): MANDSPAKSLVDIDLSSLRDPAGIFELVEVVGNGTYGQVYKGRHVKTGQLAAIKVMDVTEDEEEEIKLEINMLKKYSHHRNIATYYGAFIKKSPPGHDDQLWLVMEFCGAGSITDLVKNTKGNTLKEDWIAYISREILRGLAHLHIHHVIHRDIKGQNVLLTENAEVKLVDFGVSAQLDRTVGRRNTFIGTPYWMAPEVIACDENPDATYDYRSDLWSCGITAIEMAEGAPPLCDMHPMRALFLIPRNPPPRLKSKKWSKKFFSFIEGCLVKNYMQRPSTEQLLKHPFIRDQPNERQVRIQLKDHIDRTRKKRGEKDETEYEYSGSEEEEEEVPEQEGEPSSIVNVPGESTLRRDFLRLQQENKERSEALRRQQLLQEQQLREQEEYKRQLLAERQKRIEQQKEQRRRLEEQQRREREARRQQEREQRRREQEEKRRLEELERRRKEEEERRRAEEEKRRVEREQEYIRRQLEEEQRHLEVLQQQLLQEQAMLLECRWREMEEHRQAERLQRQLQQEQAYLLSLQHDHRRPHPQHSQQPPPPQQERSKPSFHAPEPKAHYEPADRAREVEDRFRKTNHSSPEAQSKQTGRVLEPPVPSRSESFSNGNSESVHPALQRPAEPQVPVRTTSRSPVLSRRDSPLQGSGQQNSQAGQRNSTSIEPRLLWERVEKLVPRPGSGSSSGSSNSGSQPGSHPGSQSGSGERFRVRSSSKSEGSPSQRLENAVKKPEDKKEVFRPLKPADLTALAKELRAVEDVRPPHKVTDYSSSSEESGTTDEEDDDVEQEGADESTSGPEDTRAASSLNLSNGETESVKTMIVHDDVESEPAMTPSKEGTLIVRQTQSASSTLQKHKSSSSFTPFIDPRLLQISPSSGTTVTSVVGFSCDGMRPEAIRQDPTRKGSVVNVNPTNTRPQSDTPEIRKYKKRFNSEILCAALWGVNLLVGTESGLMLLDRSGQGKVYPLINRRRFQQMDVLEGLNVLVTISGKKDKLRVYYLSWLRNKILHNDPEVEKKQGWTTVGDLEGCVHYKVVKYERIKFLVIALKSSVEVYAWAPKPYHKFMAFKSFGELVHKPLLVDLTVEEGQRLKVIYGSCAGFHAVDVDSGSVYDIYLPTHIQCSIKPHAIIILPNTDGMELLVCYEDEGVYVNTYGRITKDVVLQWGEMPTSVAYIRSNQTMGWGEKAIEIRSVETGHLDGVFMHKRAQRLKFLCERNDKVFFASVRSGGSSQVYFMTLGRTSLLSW
PKN1 (human), sequence (Q16512 whole entry, looked up): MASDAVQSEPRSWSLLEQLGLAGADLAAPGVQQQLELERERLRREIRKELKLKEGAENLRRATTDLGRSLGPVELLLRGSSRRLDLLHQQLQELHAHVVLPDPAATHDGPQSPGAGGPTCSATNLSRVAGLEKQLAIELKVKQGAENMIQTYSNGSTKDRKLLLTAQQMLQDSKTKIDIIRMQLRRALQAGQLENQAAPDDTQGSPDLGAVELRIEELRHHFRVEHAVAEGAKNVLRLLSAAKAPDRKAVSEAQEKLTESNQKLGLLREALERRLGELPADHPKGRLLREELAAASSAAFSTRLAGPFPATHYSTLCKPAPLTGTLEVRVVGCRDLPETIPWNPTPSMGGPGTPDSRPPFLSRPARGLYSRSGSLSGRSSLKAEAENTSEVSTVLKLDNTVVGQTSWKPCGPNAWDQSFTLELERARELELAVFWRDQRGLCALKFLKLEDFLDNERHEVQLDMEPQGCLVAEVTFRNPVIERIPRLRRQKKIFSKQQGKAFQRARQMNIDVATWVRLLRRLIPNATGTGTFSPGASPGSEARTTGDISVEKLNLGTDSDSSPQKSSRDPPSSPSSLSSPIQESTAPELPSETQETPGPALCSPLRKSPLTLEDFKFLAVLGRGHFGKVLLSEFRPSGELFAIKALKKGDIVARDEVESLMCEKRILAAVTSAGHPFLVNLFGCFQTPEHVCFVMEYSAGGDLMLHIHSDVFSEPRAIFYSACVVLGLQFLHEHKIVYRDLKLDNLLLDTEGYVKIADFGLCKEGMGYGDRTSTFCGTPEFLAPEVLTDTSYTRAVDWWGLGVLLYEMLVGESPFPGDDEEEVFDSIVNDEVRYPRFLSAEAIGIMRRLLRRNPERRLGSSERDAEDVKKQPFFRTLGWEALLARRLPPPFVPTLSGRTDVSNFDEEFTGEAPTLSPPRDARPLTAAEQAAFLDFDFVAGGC
CDK3 (human), sequence (Q00526 whole entry, looked up): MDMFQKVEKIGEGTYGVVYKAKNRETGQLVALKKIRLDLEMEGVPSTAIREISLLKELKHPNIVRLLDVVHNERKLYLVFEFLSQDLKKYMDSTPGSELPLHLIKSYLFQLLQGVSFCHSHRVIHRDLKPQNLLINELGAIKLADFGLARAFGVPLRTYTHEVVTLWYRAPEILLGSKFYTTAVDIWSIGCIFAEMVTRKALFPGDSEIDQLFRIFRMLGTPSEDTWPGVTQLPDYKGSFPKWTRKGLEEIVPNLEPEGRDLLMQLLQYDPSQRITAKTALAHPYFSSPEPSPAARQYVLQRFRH

| Structure (SMILES) | kinase still bound, per cent of control (CDK3 (human)) [%] | kinase still bound, per cent of control (PKN1 (human)) [%] | kinase still bound, per cent of control (MAP4K4 (human)) [%] | kinase still bound, per cent of control (CDK17 (human)) [%] | kinase still bound, per cent of control (NEK5 (human)) [%] | kinase still bound, per cent of control (MYO3B (human)) [%] | kinase still bound, per cent of control (PRKCE (human)) [%] | kinase still bound, per cent of control (FGFR2 (human)) [%] | kinase still bound, per cent of control (MAPK10 (human)) [%] | kinase still bound, per cent of control (PRKG2 (human)) [%] | kinase still bound, per cent of control (RPS6KA4 KD2 (human)) [%] | kinase still bound, per cent of control (STK38L (human)) [%] | kinase still bound, per cent of control (CAMKK1 (human)) [%] | kinase still bound, per cent of control (DCLK3 (human)) [%] | kinase still bound, per cent of control (CDK11B (human)) [%] | kinase still bound, per cent of control [1] [%] | kinase still bound, per cent of control (RPS6KA6 KD1 (human)) [%] | kinase still bound, per cent of control (NTRK3 (human)) [%] | kinase still bound, per cent of control (PIP5K1A (human)) [%] | kinase still bound, per cent of control (EPHA8 (human)) [%] | further results |
| --- | --- | --- | --- | --- | --- | --- | --- | --- | --- | --- | --- | --- | --- | --- | --- | --- | --- | --- | --- | --- | --- |
| C=CC(=O)Nc1cc(NC(=O)c2ccc(C)c(NC(=O)c3ccno3)c2)cc(C(F)(F)F)c1 | 97 | 96 | 88 | 92 | 100 | 100 | 100 | 99 | 86 | 94 | 94 | 88 | 96 | 100 | 86 | 51 | 86 | 100 | 100 | 3.6 | kinase still bound, per cent of control (FGFR3 (human)): 97%; kinase still bound, per cent of control (CDK8 (human)): 100%; kinase still bound, per cent of control (LIMK1 (human)): 100%; kinase still bound, per cent of control (STK16 (human)): 100%; kinase still bound, per cent of control (STK10 (human)): 100%; kinase still bound, per cent of control (FGR (human)): 63%; kinase still bound, per cent of control [2]: 100%; kinase still bound, per cent of control (MAP4K2 (human)): 100%; kinase still bound, per cent of control (EPHA1 (human)): 99%; kinase still bound, per cent of control (TNK1 (human)): 85%; kinase still bound, per cent of control (MLTK (human)): 6%; kinase still bound, per cent of control (STK4 (human)): 99%; kinase still bound, per cent of control (GAK (human)): 100%; kinase still bound, per cent of control [3]: 98%; kinase still bound, per cent of control (PTK2B (human)): 91%; kinase still bound, per cent of control (PRKAA2 (human)): 100%; kinase still bound, per cent of control (STK24 (human)): 100%; kinase still bound, per cent of control [4]: 78%; kinase still bound, per cent of control (CDC42BPG (human)): 100%; kinase still bound, per cent of control (PKN2 (human)): 100% |
| Nc1ccc(-c2ccc3ncc4ccc(=O)n(-c5cccc(C(F)(F)F)c5)c4c3c2)cn1 | 100 | 100 | 71 | 98 | 94 | 87 | 69 | 90 | 78 | 89 | 100 | 100 | 94 | 100 | 100 | 100 | 80 | 100 | 78 | 99 | kinase still bound, per cent of control (FGFR3 (human)): 75%; kinase still bound, per cent of control (CDK8 (human)): 100%; kinase still bound, per cent of control (LIMK1 (human)): 100%; kinase still bound, per cent of control (STK16 (human)): 59%; kinase still bound, per cent of control (STK10 (human)): 100%; kinase still bound, per cent of control (FGR (human)): 100%; kinase still bound, per cent of control [2]: 100%; kinase still bound, per cent of control (MAP4K2 (human)): 68%; kinase still bound, per cent of control (EPHA1 (human)): 93%; kinase still bound, per cent of control (TNK1 (human)): 100%; kinase still bound, per cent of control (MLTK (human)): 65%; kinase still bound, per cent of control (STK4 (human)): 100%; kinase still bound, per cent of control (GAK (human)): 56%; kinase still bound, per cent of control [3]: 85%; kinase still bound, per cent of control (PTK2B (human)): 86%; kinase still bound, per cent of control (PRKAA2 (human)): 95%; kinase still bound, per cent of control (STK24 (human)): 98%; kinase still bound, per cent of control [4]: 61%; kinase still bound, per cent of control (CDC42BPG (human)): 86%; kinase still bound, per cent of control (PKN2 (human)): 72% |
| C=CC(=O)Nc1cccc(Nc2nc(N[C@H]3CC[C@H](N(C)C)CC3)nc3c2ncn3C(C)C)c1 | 95 | 22 | 53 | 100 | 94 | 100 | 52 | 62 | 100 | 96 | 52 | 41 | 40 | 86 | 100 | 71 | 8.2 | 28 | 36 | 100 | kinase still bound, per cent of control (FGFR3 (human)): 68%; kinase still bound, per cent of control (CDK8 (human)): 100%; kinase still bound, per cent of control (LIMK1 (human)): 100%; kinase still bound, per cent of control (STK16 (human)): 72%; kinase still bound, per cent of control (STK10 (human)): 72%; kinase still bound, per cent of control (FGR (human)): 14%; kinase still bound, per cent of control [2]: 59%; kinase still bound, per cent of control (MAP4K2 (human)): 31%; kinase still bound, per cent of control (EPHA1 (human)): 72%; kinase still bound, per cent of control (TNK1 (human)): 100%; kinase still bound, per cent of control (MLTK (human)): 100%; kinase still bound, per cent of control (STK4 (human)): 78%; kinase still bound, per cent of control (GAK (human)): 44%; kinase still bound, per cent of control [3]: 34%; kinase still bound, per cent of control (PTK2B (human)): 51%; kinase still bound, per cent of control (PRKAA2 (human)): 100%; kinase still bound, per cent of control (STK24 (human)): 43%; kinase still bound, per cent of control [4]: 10%; kinase still bound, per cent of control (CDC42BPG (human)): 84%; kinase still bound, per cent of control (PKN2 (human)): 61% |
